According to ChEMBL document CHEMBL4507303, “Data for DCP probe TP-004” (2021):

Key:
[1] = molecular target: Interleukin-1 receptor-associated kinase 4 (Homo sapiens) (UniProt Q9NWZ3); details: Compound concentration 1000.0 nM
[2] = molecular target: Dual specificity mitogen-activated protein kinase kinase 4 (Homo sapiens) (UniProt P45985); details: Compound concentration 1000.0 nM
[3] = molecular target: Calcium/calmodulin-dependent protein kinase type 1B (Homo sapiens) (UniProt Q6P2M8); details: Compound concentration 1000.0 nM
[4] = molecular target: MAP/microtubule affinity-regulating kinase 3 (Homo sapiens) (UniProt P27448); details: Compound concentration 1000.0 nM
[5] = molecular target: Beta-3 adrenergic receptor (Homo sapiens) (UniProt P13945); details: Compound concentration 10.0 uM
[6] = molecular target: Aurora kinase A (Homo sapiens) (UniProt O14965); details: Compound concentration 1000.0 nM
[7] = molecular target: Calcium/calmodulin-dependent protein kinase type 1 (Homo sapiens) (UniProt Q14012); details: Compound concentration 1000.0 nM
[8] = molecular target: Ephrin type-B receptor 2 (Homo sapiens) (UniProt P29323); details: Compound concentration 1000.0 nM
[9] = molecular target: Calcium/calmodulin-dependent protein kinase type IV (Homo sapiens) (UniProt Q16566); details: Compound concentration 1000.0 nM
[10] = molecular target: Phosphatidylinositol 4-kinase beta (Homo sapiens) (UniProt Q9UBF8); details: Compound concentration 1000.0 nM
[11] = molecular target: Dual specificity protein kinase CLK3 (Homo sapiens) (UniProt P49761); details: Compound concentration 1000.0 nM
[12] = molecular target: Casein kinase I isoform gamma-3 (Homo sapiens) (UniProt Q9Y6M4); details: Compound concentration 1000.0 nM
[13] = molecular target: Serine/threonine-protein kinase WNK4 (Homo sapiens) (UniProt Q96J92); details: Compound concentration 1000.0 nM
[14] = molecular target: Serine/threonine-protein kinase Nek2 (Homo sapiens) (UniProt P51955); details: Compound concentration 1000.0 nM
[15] = molecular target: Mitogen-activated protein kinase kinase kinase 1 (Homo sapiens) (UniProt Q13233); details: Compound concentration 1000.0 nM
[16] = molecular target: Mu-type opioid receptor (Homo sapiens) (UniProt P35372); details: Compound concentration 10.0 uM
[17] = molecular target: Phosphatidylinositol 3-kinase C2 domain-containing subunit gamma (Homo sapiens) (UniProt O75747); details: Compound concentration 1000.0 nM
[18] = molecular target: Serine/threonine-protein kinase 4 (Homo sapiens) (UniProt Q13043); details: Compound concentration 1000.0 nM
[19] = molecular target: Serine/threonine-protein kinase TBK1 (Homo sapiens) (UniProt Q9UHD2); details: Compound concentration 1000.0 nM
[20] = molecular target: Phosphatidylinositol 4,5-bisphosphate 3-kinase catalytic subunit delta isoform (Homo sapiens) (UniProt O00329); details: Compound concentration 1000.0 nM
[21] = molecular target: Phosphatidylinositol 4-phosphate 5-kinase type-1 alpha (Homo sapiens) (UniProt Q99755); details: Compound concentration 1000.0 nM
[22] = system: Tyrosine-protein kinase ABL1 (Homo sapiens), P00519 [F317L]; details: Compound concentration 1000.0 nM
[23] = molecular target: Muscarinic acetylcholine receptor M3 (Homo sapiens) (UniProt P20309); details: Compound concentration 10.0 uM
[24] = molecular target: Mitogen-activated protein kinase kinase kinase 14 (Homo sapiens) (UniProt Q99558); details: Compound concentration 1000.0 nM
[25] = molecular target: Mitotic checkpoint serine/threonine-protein kinase BUB1 (Homo sapiens) (UniProt O43683); details: Compound concentration 1000.0 nM
[26] = molecular target: Protein-tyrosine kinase 2-beta (Homo sapiens) (UniProt Q14289); details: Compound concentration 1000.0 nM
[27] = molecular target: 5-hydroxytryptamine receptor 1E (Homo sapiens) (UniProt P28566); details: Compound concentration 10.0 uM
[28] = system: Receptor-type tyrosine-protein kinase FLT3 (Homo sapiens), P36888 [D835H]; details: Compound concentration 1000.0 nM
[29] = molecular target: MAP/microtubule affinity-regulating kinase 4 (Homo sapiens) (UniProt Q96L34); details: Compound concentration 1000.0 nM
[30] = molecular target: Histamine H3 receptor (Homo sapiens) (UniProt Q9Y5N1); details: Compound concentration 10.0 uM
[31] = molecular target: BMP-2-inducible protein kinase (Homo sapiens) (UniProt Q9NSY1); details: Compound concentration 1000.0 nM
[32] = system: Receptor-type tyrosine-protein kinase FLT3 (Homo sapiens), P36888 [R834Q]; details: Compound concentration 1000.0 nM
[33] = molecular target: Cyclin-dependent kinase 11B (Homo sapiens) (UniProt P21127); details: Compound concentration 1000.0 nM
[34] = molecular target: Serine/threonine-protein kinase 25 (Homo sapiens) (UniProt O00506); details: Compound concentration 1000.0 nM
[35] = molecular target: Serine/threonine-protein kinase Chk2 (Homo sapiens) (UniProt O96017); details: Compound concentration 1000.0 nM
[36] = molecular target: Serine/threonine-protein kinase PLK1 (Homo sapiens) (UniProt P53350); details: Compound concentration 1000.0 nM
[37] = molecular target: Tyrosine-protein kinase Blk (Homo sapiens) (UniProt P51451); details: Compound concentration 1000.0 nM
[38] = system: Hepatocyte growth factor receptor (Homo sapiens), P08581 [Y1235D]; details: Compound concentration 1000.0 nM
[39] = molecular target: Serine/threonine-protein kinase NIM1 (Homo sapiens) (UniProt Q8IY84); details: Compound concentration 1000.0 nM
[40] = molecular target: Serine/threonine-protein kinase ULK2 (Homo sapiens) (UniProt Q8IYT8); details: Compound concentration 1000.0 nM
[41] = molecular target: Ribosomal protein S6 kinase alpha-4 (Homo sapiens) (UniProt O75676); details: Compound concentration 1000.0 nM
[42] = molecular target: Glycogen synthase kinase-3 alpha (Homo sapiens) (UniProt P49840); details: Compound concentration 1000.0 nM
[43] = system: Receptor-type tyrosine-protein kinase FLT3 (Homo sapiens), P36888 [UNDEFINED MUTATION]; details: Compound concentration 1000.0 nM
[44] = molecular target: Serine/threonine-protein kinase ULK1 (Homo sapiens) (UniProt O75385); details: Compound concentration 1000.0 nM
[45] = molecular target: Fibroblast growth factor receptor 1 (Homo sapiens) (UniProt P11362); details: Compound concentration 1000.0 nM

Sequence of Mitotic checkpoint serine/threonine-protein kinase BUB1 (Homo sapiens) (O43683 whole entry, looked up): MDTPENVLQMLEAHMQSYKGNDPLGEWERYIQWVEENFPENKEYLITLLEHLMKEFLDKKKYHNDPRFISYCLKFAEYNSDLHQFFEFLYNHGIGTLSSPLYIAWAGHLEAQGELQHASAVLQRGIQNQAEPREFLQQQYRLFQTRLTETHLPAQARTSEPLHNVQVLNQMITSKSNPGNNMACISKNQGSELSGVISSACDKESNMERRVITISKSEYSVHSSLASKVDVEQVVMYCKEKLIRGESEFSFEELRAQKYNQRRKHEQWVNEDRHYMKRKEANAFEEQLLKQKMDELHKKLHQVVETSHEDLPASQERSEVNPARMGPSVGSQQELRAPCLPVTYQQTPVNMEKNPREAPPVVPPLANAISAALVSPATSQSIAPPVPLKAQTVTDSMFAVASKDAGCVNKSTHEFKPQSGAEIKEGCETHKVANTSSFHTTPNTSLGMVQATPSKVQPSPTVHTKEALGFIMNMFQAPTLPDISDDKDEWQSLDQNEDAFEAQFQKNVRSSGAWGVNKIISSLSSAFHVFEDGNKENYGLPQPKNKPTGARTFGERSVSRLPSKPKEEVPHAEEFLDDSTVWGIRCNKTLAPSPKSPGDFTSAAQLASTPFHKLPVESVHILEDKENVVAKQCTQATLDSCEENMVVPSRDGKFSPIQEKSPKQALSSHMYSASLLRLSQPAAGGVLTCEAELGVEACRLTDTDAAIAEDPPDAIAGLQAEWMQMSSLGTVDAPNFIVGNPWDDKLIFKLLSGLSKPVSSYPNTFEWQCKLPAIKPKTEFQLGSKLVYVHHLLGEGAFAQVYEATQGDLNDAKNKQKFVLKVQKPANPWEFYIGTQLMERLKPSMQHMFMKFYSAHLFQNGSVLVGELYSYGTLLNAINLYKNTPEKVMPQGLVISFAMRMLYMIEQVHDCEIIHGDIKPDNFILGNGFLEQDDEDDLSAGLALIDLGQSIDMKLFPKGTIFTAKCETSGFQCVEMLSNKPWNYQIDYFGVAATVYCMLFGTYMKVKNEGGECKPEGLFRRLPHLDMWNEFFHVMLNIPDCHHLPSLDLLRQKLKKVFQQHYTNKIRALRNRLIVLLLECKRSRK
Sequence of Glycogen synthase kinase-3 alpha (Homo sapiens) (P49840 2-483 limits assumed): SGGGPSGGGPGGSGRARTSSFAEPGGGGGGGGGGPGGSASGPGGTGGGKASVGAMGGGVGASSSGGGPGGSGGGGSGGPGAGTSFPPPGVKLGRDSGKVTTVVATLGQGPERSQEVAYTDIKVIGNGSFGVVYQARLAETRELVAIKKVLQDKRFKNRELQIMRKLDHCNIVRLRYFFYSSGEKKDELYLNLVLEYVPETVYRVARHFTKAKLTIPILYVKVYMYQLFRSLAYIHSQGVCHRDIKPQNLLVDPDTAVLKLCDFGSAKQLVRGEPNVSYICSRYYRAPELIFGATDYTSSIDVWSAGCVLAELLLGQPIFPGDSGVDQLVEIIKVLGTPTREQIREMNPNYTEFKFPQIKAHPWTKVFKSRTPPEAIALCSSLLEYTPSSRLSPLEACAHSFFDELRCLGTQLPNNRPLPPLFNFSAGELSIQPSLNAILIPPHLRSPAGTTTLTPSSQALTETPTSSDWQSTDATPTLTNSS
Sequence of Calcium/calmodulin-dependent protein kinase type 1 (Homo sapiens) (Q14012 whole entry, looked up): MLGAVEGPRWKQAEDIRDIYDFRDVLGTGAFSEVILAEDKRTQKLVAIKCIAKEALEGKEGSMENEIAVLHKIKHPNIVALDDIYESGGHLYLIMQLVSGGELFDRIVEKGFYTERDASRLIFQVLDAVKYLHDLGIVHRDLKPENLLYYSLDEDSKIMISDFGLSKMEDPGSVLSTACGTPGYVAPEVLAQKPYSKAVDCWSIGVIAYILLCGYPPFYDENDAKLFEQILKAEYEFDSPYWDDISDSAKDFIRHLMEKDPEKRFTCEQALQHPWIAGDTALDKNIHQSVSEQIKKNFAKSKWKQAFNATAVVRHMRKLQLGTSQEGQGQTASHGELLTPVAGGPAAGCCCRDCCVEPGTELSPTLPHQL
Sequence of Serine/threonine-protein kinase PLK1 (Homo sapiens) (P53350 whole entry): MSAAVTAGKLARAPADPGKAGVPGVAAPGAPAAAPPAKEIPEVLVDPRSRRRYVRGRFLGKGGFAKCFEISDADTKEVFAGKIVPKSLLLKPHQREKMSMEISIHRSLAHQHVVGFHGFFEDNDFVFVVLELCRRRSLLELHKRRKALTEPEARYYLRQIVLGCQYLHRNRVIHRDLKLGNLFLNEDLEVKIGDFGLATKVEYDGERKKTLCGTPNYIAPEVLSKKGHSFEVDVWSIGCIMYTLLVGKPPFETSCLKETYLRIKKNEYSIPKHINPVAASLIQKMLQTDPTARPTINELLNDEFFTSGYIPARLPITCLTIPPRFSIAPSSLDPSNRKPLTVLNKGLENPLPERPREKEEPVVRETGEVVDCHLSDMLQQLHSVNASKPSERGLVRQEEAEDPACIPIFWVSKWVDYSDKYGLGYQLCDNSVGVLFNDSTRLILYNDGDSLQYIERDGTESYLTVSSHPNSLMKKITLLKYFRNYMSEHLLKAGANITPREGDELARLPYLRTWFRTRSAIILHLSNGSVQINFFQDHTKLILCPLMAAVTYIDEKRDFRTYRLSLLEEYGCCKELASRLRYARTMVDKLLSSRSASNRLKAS
Sequence of Protein-tyrosine kinase 2-beta (Homo sapiens) (Q14289 whole entry, looked up): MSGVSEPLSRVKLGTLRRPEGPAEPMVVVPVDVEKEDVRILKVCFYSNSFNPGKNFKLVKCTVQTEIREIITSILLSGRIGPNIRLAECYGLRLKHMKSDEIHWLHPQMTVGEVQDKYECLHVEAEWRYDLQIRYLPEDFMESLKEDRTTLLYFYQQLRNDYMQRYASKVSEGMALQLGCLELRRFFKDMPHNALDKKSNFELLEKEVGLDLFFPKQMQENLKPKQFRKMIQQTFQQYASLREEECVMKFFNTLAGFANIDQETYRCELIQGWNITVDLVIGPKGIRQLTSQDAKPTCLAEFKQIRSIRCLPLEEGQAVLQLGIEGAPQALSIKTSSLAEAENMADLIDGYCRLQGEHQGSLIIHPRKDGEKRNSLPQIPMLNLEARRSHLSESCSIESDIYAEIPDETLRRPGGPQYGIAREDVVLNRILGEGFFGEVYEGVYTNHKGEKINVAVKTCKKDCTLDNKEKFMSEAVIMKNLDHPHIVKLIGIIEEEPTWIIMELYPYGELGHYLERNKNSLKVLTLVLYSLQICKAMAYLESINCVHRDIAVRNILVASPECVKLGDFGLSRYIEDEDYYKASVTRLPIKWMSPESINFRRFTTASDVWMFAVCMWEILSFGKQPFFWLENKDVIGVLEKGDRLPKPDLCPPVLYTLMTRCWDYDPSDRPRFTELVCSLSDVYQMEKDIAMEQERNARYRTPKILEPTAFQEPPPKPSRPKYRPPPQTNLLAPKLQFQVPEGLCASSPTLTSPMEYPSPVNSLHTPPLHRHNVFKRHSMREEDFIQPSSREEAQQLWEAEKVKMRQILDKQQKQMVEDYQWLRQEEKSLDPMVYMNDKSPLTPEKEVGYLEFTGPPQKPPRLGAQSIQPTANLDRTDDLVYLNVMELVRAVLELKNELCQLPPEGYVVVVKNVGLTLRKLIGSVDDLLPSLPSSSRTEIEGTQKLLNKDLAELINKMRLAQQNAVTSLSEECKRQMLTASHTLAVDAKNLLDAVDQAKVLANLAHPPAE
Sequence of Mu-type opioid receptor (Homo sapiens) (P35372 whole entry, the tested form may be a part): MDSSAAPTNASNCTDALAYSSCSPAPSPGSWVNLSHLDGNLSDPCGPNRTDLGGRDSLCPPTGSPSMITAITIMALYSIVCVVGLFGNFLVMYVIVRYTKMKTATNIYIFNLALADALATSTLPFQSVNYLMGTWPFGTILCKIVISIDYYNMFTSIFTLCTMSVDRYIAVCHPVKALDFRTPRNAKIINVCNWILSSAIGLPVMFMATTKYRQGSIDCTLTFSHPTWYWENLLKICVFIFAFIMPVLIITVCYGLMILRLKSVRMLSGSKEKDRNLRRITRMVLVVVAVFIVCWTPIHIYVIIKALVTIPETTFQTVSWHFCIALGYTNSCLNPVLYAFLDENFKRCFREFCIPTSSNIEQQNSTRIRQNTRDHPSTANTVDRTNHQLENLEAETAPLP
Sequence of Serine/threonine-protein kinase Nek2 (Homo sapiens) (P51955 whole entry): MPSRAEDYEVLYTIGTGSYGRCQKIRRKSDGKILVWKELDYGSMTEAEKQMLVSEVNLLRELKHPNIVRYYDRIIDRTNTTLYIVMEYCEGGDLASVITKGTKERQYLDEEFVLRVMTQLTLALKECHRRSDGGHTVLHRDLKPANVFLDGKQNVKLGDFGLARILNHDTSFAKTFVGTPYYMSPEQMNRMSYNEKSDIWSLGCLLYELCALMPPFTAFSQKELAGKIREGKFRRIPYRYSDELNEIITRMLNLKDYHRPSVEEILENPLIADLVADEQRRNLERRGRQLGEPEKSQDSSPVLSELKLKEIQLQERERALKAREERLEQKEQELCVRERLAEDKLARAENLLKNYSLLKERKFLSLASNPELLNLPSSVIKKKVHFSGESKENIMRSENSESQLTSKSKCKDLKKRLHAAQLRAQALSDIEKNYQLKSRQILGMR
Sequence of Casein kinase I isoform gamma-3 (Homo sapiens) (Q9Y6M4 whole entry, looked up, canonical isoform): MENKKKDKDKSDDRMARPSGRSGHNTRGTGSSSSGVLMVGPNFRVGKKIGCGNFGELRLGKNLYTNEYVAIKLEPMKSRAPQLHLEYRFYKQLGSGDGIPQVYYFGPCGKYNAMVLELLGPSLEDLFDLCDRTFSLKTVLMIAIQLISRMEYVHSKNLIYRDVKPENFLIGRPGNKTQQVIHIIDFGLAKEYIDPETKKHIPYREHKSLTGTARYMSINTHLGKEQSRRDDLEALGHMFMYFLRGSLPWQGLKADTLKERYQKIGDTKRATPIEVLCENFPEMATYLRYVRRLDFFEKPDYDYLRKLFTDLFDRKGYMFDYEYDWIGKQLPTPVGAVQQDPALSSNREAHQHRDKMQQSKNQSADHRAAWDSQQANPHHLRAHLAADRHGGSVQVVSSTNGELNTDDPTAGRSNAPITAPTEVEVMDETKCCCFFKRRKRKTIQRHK

Cc1nc(N2CC[C@@H](O)C2)ncc1-c1cc(C(F)(F)F)cc2[nH]ncc12 [TP-004]
inactive: residual activity [1] 94% | residual activity [2] 97% | residual activity [3] 90% | residual activity [4] 100% | inhibition [5] 20.7% | residual activity [6] 87% | residual activity [7] 100% | residual activity [8] 100% | residual activity [9] 100% | residual activity [10] 53% | residual activity [11] 76% | residual activity [12] 74% | residual activity [13] 95% | residual activity [14] 92% | residual activity [15] 60% | inhibition [16] 7.79% | residual activity [17] 90% | residual activity [18] 83% | residual activity [19] 82% | residual activity [20] 72% | residual activity [21] 86% | residual activity [22] 100% | inhibition [23] -2.13% | residual activity [24] 68% | residual activity [25] 75% | residual activity [26] 100% | inhibition [27] -5.65% | residual activity [28] 100% | residual activity [29] 80% | inhibition [30] 28.6% | residual activity [31] 100% | residual activity [32] 73% | residual activity [33] 94% | residual activity [34] 100% | residual activity [35] 96% | residual activity [36] 64% | residual activity [37] 100% | residual activity [38] 81% | residual activity [39] 71% | residual activity [40] 66% | residual activity [41] 84% | residual activity [42] 54% | residual activity [43] 100% | residual activity [44] 76% | residual activity [45] 90%
